{"source": "patent US20150126464A1", "about": "“THERAPEUTIC DRUG AND THERAPEUTIC METHOD FOR NEUROLOGICAL DISEASES INCLUDING ALZHEIMER'S DISEASE ASSOCIATED WITH 1,25D3-MARRS” (priority 2013, published 2015)", "format_in_all_cases": "in vivo, mouse", "key": {"5XFAD mice [1]": {"test_system": "5XFAD mice", "test": "Novel object recognition test in 5XFAD mice (Alzheimer's disease model)", "settings": "i.p. once a day for 20 days, diosgenin 10 μmol/kg, memantine hydrochloride 200 μmol/kg/day, 30 min training-test interval", "source_text": "Transgenic mice (5XFAD) as an animal model of AD were obtained from the Jackson Laboratory (Bar Harbor, Me., USA). The 5XFAD mice overexpress human APP695 cDNA having Swedish mutation (K670N and M671L), Florida mutation (I716V) and London mutation (V717I) and human PS1 cDNA (M146L and L286V) under the transcriptional control of the neuron-specific mouse Thy-1 promoter (Oakley, H. et al., J Neurosci, 26, 10129-10140, 2006). They were maintained by crossing hemizygous transgenic mice with B6/SJL F1 breeders.\nTo investigate the effect of diosgenin on 5XFAD, hemizygous 5XFAD mice (female, 6 to 8 months old) and non-transgenic littermate wild-type mice (female, 6 to 8 months old) were used. These mice were obtained by crossing hemizygous 5XFAD mice and B6/SJL F1 mice. All mice were housed with free access to food and water and were kept in a controlled environment (22±2° C., 50±5% humidity, 12-h light/dark cycle starting at 7:00 am).\nDiosgenin was dissolved in dimethyl sulfoxide (DMSO) at 10 times the final concentration to give a stock solution. The stock solution was diluted in physiological saline to the final concentration immediately before treatment. The diosgenin solution was intraperitoneally administered to 5XFAD mice once a day (10 μmol/kg=4.14 mg/kg) for 20 days. On the last day of administration (Day 20), each mouse was housed in a separate open-field box made of polyvinyl chloride (33 cm×[…]; height: 26.5 cm) and habituated to the environment for 10 min. […]\nFor each mouse of Example 1, Comparative Examples 1 and 2, and Reference Example 1, the path during the 10-minute habituation was tracked using a digital camera system. The distance each mouse traveled during the 10 minutes was analyzed as locomotion activity with EthoVision 3.0 (Noldus, Wageningen, The Netherlands). […] In the present invention, the ratio (%) of the exploration time for the novel object to the total exploration time was calculated as an exploration preferential index. […]"}, "5XFAD mice [2]": {"test_system": "5XFAD mice", "test": "Immunohistochemistry of brain slices of 5XFAD mice (amyloid plaques, PHF-tau, abnormal axons, presynapses)", "settings": "vs vehicle-treated 5XFAD", "procedure": "One day after the novel object recognition test, the mice were anesthetized and transcardially perfused with cold physiological saline. The brains were carefully removed from the skull, immediately immersed in 10 to 30% sucrose-PBS and stored at -80° C. The brains were cut in 20-μm successive coronal slices every 100 μm in the parietal area (bregma 1.4-2 mm) sections using a cryostat (C[…], Leica, Heidelberg, Germany). The slices were fixed with 4% paraformaldehyde and stained with a polyclonal antibody against Aβ (1-40/42) (1:300) (Chemicon, Temecula, Calif., USA), a monoclonal antibody against pNF-H (1:500) (Covance, Emeryville, Calif., USA), a monoclonal antibody against synaptophysin (1:500) (Sigma-Aldrich), and a monoclonal antibody against PHF-tau (Thermo Scientific, Rockford, Ill., USA) at 4° C. for 20 hours. […] Three successive brain slices of the frontal cortex and five successive slices of the hippocampus were captured from a mouse for quantification. Extracellular amyloid plaques were determined by the size (greater than 50 μm in width), and the area of amyloid plaques was measured using the image analyzing software ImageJ. The area of the pNF-H-positive abnormal bulb-like axons was measured using ImageJ for every amyloid plaque in the fluorescent images (324 μm×430 μm). The areas of the synaptophysin-positive presynaptic boutons in every amyloid plaque were measured in fluorescent images (324 μm×430 μm) using Image J. The areas of PHF-tau in every amyloid plaque and outer amyloid plaques were measured in fluorescent images (324 μm×430 μm) using ImageJ."}, "normal mice": {"test_system": "normal mice", "test": "Measurement of spontaneous motor activity", "settings": "normal ddY mice, diosgenin 10 μmol/kg/day i.p., vs vehicle", "procedure": "Diosgenin (Wako Pure Chemical Industries, Ltd., Osaka, Japan) was dissolved in ethanol at 10 times the final concentration to give a stock solution, and the stock solution was diluted in a 5% aqueous solution of glucose to the final concentration. The diosgenin solution was intraperitoneally administered to normal mice (ddY mice, male, 6 weeks old) once a day (10 μmol/kg/day) for 5 or 6 days. One hour after the last administration, each mouse was housed in a separate open-field box made of polyvinyl chloride (33 cm×28 cm; height: 26.5 cm), habituated to the environment for 10 minutes, and used in the test.\nThe spontaneous motor activity was evaluated based on the distance each mouse traveled in an open field during 10 minutes."}, "[3]": {"settings": "diosgenin 10 μmol/kg, memantine hydrochloride 200 μmol/kg/day i.p. 20 days"}}}
{"molecule": "C[C@@H]1CC[C@@]2(OC1)O[C@H]1C[C@H]3[C@@H]4CC=C5C[C@@H](O)CC[C@]5(C)[C@H]4CC[C@]3(C)[C@H]1[C@@H]2C", "note": "[diosgenin]", "values": [{"measurement": "novel object preferential index (exploration preferential index), test session", "setting": "5XFAD mice [1]", "result": "higher than 50%"}, {"measurement": "area of abnormal presynapses (swollen presynapse area) per amyloid plaque in the cerebral cortex", "setting": "5XFAD mice [2]; diosgenin 10 μmol/kg i.p. 20 days", "result": "significantly reduced"}, {"measurement": "area of abnormal axons (swollen axon area) per amyloid plaque in the cerebral cortex", "setting": "5XFAD mice [2]; [3]", "result": "significantly reduced"}, {"measurement": "area of abnormal axons (swollen axon area) per amyloid plaque in the hippocampus", "setting": "5XFAD mice [2]; [3]", "result": "significantly reduced"}, {"measurement": "total area of PHF-tau in the cerebral cortex", "setting": "5XFAD mice [2]; [3]", "result": "significantly reduced"}, {"measurement": "total area of PHF-tau in the hippocampus", "setting": "5XFAD mice [2]; [3]", "result": "significantly reduced"}, {"measurement": "total area of amyloid plaques in the cerebral cortex", "setting": "5XFAD mice [2]; [3]", "result": "significantly reduced"}, {"measurement": "total area of amyloid plaques in the hippocampus", "setting": "5XFAD mice [2]; [3]", "result": "significantly reduced"}, {"measurement": "spontaneous motor activity (distance traveled in an open field during 10 minutes)", "setting": "normal mice", "result": "no significant difference"}]}
